The numbers were not newly measured in patent publication US20210268080A1, “IMMUNE STIMULATING COMPOSITIONS FOR THE TREATMENT AND REVENTION OF INFECTIONS WITH INTRACELLULAR PATHOGENS” (priority 2018, published 2021), which cites them from elsewhere.

Structures are written as SMILES.

For the data set, the system named is Trypanosoma cruzi.

As for `O=C(Cn1ccnc1[N+](=O)[O-])NCc1ccccc1` [benznidazole], the “onset of heart disease” value (adults with chronic Chagas infections) is listed as “slow the onset”. Besides, under “children aged six to 12 years with chronic disease”, the cure rate entry was “about 60%”. For the setting “months-long regimen”, the “patients who fail to complete the drug regimen due to toxicities” value is listed as about 20%. Also, under “patients with established Chagas cardiomyopathy”, the serum parasite detection result is reported as “significantly reduced”. For the setting “patients with established Chagas cardiomyopathy, five years of follow-up”, the cardiac clinical deterioration result is reported as “did not significantly reduce”.

Consider `CC[C@@H]([C@H](C)O)n1ncn(-c2ccc(N3CCN(c4ccc(OC[C@@H]5CO[C@@](Cn6cncn6)(c6ccc(F)cc6F)C5)cc4)CC3)cc2)c1=O` [posaconazole], for which the “efficacy in human studies” value (human, in vivo) is recorded as “limited efficacy”.
